For test [1], the system named is Mus musculus. In words: Hypoglycemic activity in Mus musculus Kunming (mouse) assessed as reduction of 16 hr fasting plasma glucose level at 2.4 mg/kg, po qd for 7 days by oral glucose tolerance test (reference value: 6.20 +/- 0.63 mmol/l). It is filed as functional.
The test system of test [2] is Mus musculus. Description: Antidiabetic activity in Mus musculus Kunming (mouse) alloxan-induced diabetic model assessed as reduction of 16 hr fasting plasma glucose level at 10 mg/kg, po qd for 7 days (reference value: 6.11 +/- 0.64 mmol/l). It is filed as functional.
Test [3] deals with Mus musculus. Description: Hypoglycemic activity in Mus musculus Kunming (mouse) assessed as reduction of 16 hr fasting plasma glucose level at 10 mg/kg, po qd for 7 days by oral glucose tolerance test (reference value: 6.20 +/- 0.63 mmol/l). Format: functional.
Test [4] deals with Mus musculus. Description: Antidiabetic activity in Mus musculus Kunming (mouse) alloxan-induced diabetic model assessed as reduction of 16 hr fasting plasma glucose level at 5 mg/kg, po qd for 7 days (reference value: 6.11 +/- 0.64 mmol/l). Format: functional.
The subject of test [5] is Mus musculus. Description: Hypoglycemic activity in Mus musculus Kunming (mouse) assessed as reduction of 16 hr fasting plasma glucose level at 5 mg/kg, po qd for 7 days by oral glucose tolerance test (reference value: 6.20 +/- 0.63 mmol/l). It is filed as functional.
The test system of test [6] is Mus musculus. In words: Hypoglycemic activity in Mus musculus Kunming (mouse) assessed as reduction of AUC of plasma glucose level at 5 to 10 mg/kg, po qd for 7 days by oral glucose tolerance test. Format: functional, organism-based.

Molecules are shown by their SMILES. Calls of active or inactive are those of the source. No cut-off for these calls is given here.

As to `Cc1ccc(S(=O)(=O)NC(=O)NN2CC3CCCC3C2)cc1` (configuration not stated) [GLICLAZIDE], in the test on Mus musculus [1], the Activity worked out at 4.69 mmol/L.
As for `CN(C)C(=N)NC(=N)N` [METFORMIN], the Activity in the test on Mus musculus [2] is on record as 9.98 mmol/L.
`CC1=C(/C=C/C(C)=C/C=C/C(C)=C/C=C/C=C(C)/C=C/C=C(C)/C=C/C2=C(C)C(=O)[C@@H](O)CC2(C)C)C(C)(C)C[C@H](O)C1=O` [ASTAXANTHIN]: the Activity is 6.02 mmol/L in the test on Mus musculus [3], 10.11 mmol/L in the test with Mus musculus [2], 13.03 mmol/L in the test on Mus musculus [4] and 6.14 mmol/L in the test on Mus musculus [5]. Further, the result in the test on Mus musculus [6] was Active.

The values are drawn from ChEMBL document CHEMBL3045101, “Hypoglycemic effect of astaxanthin from shrimp waste in alloxan-induced diabetic mice” (2012).
